Measured values published in patent publication US20240360082A1, “SUBSTITUTED PYRIDONE COMPOUNDS USEFUL TO TREAT ORTH[…]” (priority 2021, published 2024).

Target: influenza A virus minigenome (PB2, PB1, PA, NP proteins) (UniProt P04665)
Assay type: cell-based
Details: read-out: RNP_Hubei B

influenza A virus minigenome (PB2, PB1, PA, NP proteins), sequence (P04665 whole entry): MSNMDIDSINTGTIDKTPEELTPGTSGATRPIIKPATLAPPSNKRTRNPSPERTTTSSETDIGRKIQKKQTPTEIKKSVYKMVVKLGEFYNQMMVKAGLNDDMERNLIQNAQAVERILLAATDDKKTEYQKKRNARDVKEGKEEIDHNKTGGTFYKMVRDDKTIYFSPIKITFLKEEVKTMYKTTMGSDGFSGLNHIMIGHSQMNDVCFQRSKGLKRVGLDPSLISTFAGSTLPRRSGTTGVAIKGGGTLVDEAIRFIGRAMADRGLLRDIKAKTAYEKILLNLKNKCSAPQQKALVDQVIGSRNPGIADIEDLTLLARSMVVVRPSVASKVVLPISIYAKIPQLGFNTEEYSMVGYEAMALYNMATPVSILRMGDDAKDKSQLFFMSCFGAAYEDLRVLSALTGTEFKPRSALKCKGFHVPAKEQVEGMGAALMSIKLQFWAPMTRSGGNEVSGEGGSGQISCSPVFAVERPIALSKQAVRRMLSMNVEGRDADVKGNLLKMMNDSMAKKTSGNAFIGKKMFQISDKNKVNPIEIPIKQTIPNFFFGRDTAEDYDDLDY

Question: How did the IC50 turn out when CC(c1ccc(-c2cc(C(N)=O)c(=O)[nH]c2C(F)(F)F)cc1)N1CCOCC1 (centres unmarked) [Example 33, 5-(4-(1-morpholinoethyl)phenyl)-2-oxo-6-(trifluoromethyl)-1,2-dihydropyridine-3-carboxamide] was run?
Answer: 1 to 5 µM

Question: For NC(=O)c1cc(-c2ccc(CN3CCCOCC3)cc2)c(C(F)(F)F)[nH]c1=O [Example 34, 5-(4-((1,4-oxazepan-4-yl)methyl)phenyl)-2-oxo-6-(trifluoromethyl)-1,2-dihydropyridine-3-carboxamide], which IC50 is on record?
Answer: 25 to 50 µM

Question: How did the IC50 turn out when C[C@@H]1CN(Cc2ccc(-c3cc(C(N)=O)c(=O)[nH]c3C(F)(F)F)cc2)C[C@H](C)O1 [Example 35, 5-(4-(((2S,6R)-2,6-dimethylmorpholino)methyl)phenyl)-2-oxo-6-(trifluoromethyl)-1,2-dihydropyridine-3-carboxamide] was run?
Answer: 25 to 50 µM

Question: How did the IC50 turn out when NC(=O)c1cc(-c2ccc(CN3CCOCC3)c(F)c2)c(C(F)(F)F)[nH]c1=O [Example 36, 5-(3-fluoro-4-(morpholinomethyl)phenyl)-2-oxo-6-(trifluoromethyl)-1,2-dihydropyridine-3-carboxamide] was run?
Answer: 10 to 25 µM

Question: With CC(O)c1ccc(-c2cc(C(N)=O)c(=O)[nH]c2C(F)(F)F)cc1 (centres unmarked) [Example 37, 5-(4-(1-hydroxyethyl)phenyl)-2-oxo-6-(trifluoromethyl)-1,2-dihydropyridine-3-carboxamide] as the compound, how does the IC50 read?
Answer: 25 to 50 µM

Question: COC1CN(Cc2ccc(-c3cc(C(N)=O)c(=O)[nH]c3C(F)(F)F)cc2)C1 [Example 38, 5-(4-((3-methoxyazetidin-1-yl)methyl)phenyl)-2-oxo-6-(trifluoromethyl)-1,2-dihydropyridine-3-carboxamide] was tested. Which IC50 did it give?
Answer: 25 to 50 µM

Question: Which IC50 does the source give for CC1(C)CN(Cc2ccc(-c3cc(C(N)=O)c(=O)[nH]c3C(F)(F)F)cc2)CCO1 [Example 39, 5-(4-((2,2-dimethylmorpholino)methyl)phenyl)-2-oxo-6-(trifluoromethyl)-1,2-dihydropyridine-3-carboxamide] here?
Answer: 10 to 25 µM

Question: CO[C@H]1CCN(Cc2ccc(-c3cc(C(N)=O)c(=O)[nH]c3C(F)(F)F)cc2)C1 [Example 40, (S)-5-(4-((3-methoxypyrrolidin-1-yl)methyl)phenyl)-2-oxo-6-(trifluoromethyl)-1,2-dihydropyridine-3-carboxamide] was tested. Which IC50 did it give?
Answer: 25 to 50 µM

Question: Which IC50 does the source give for CO[C@@H]1CCN(Cc2ccc(-c3cc(C(N)=O)c(=O)[nH]c3C(F)(F)F)cc2)C1 [Example 41, (R)-5-(4-((3-methoxypyrrolidin-1-yl)methyl)phenyl)-2-oxo-6-(trifluoromethyl)-1,2-dihydropyridine-3-carboxamide] here?
Answer: 25 to 50 µM

Question: With NC(=O)c1cc(-c2ccc(CN3CCOCC3)cc2F)c(C(F)(F)F)[nH]c1=O [Example 42, 5-(2-fluoro-4-(morpholinomethyl)phenyl)-2-oxo-6-(trifluoromethyl)-1,2-dihydropyridine-3-carboxamide] as the compound, how does the IC50 read?
Answer: 10 to 25 µM

Question: Cc1cc(-c2cc(C(N)=O)c(=O)[nH]c2C(F)(F)F)ccc1CN1CCOCC1 [Example 43, 5-(3-methyl-4-(morpholinomethyl)phenyl)-2-oxo-6-(trifluoromethyl)-1,2-dihydropyridine-3-carboxamide] was tested. Which IC50 did it give?
Answer: 1 to 5 µM

Question: For NC(=O)c1cc(-c2ccc(CN3CCCCC3)cc2)c(C(F)(F)F)[nH]c1=O [Example 44, 2-oxo-5-(4-(piperidin-1-ylmethyl)phenyl)-6-(trifluoromethyl)-1,2-dihydropyridine-3-carboxamide], which IC50 is on record?
Answer: 25 to 50 µM

Question: Which IC50 does the source give for CN(C)Cc1ccc(-c2cc(C(N)=O)c(=O)[nH]c2C(F)(F)F)cc1 [Example 45, 5-(4-((dimethylamino)methyl)phenyl)-2-oxo-6-(trifluoromethyl)-1,2-dihydropyridine-3-carboxamide] here?
Answer: 25 to 50 µM

Question: With NC(=O)c1cc(-c2ccc(CN3CCOCC3=O)cc2)c(C(F)(F)F)[nH]c1=O [Example 46, 2-oxo-5-(4-((3-oxomorpholino)methyl)phenyl)-6-(trifluoromethyl)-1,2-dihydropyridine-3-carboxamide] as the compound, how does the IC50 read?
Answer: 25 to 50 µM

Question: NC(=O)c1cc(-c2ccc(CN3CCS(=O)(=O)CC3)cc2)c(C(F)(F)F)[nH]c1=O [Example 47, 5-(4-((1,1-dioxidothiomorpholino)methyl)phenyl)-2-oxo-6-(trifluoromethyl)-1,2-dihydropyridine-3-carboxamide] was tested. Which IC50 did it give?
Answer: 25 to 50 µM

Question: NC(=O)c1cc(-c2ccc(C(c3cnco3)N3CCOCC3)cc2)c(C(F)(F)F)[nH]c1=O (centres unmarked) [Example 48, 5-(4-(morpholino(oxazol-5-yl)methyl)phenyl)-2-oxo-6-(trifluoromethyl)-1,2-dihydropyridine-3-carboxamide] was tested. Which IC50 did it give?
Answer: 25 to 50 µM

Question: For CS(=O)(=O)NCc1ccc(-c2cc(C(N)=O)c(=O)[nH]c2C(F)(F)F)cc1 [Example 49, 5-(4-(methylsulfonamidomethyl)phenyl)-2-oxo-6-(trifluoromethyl)-1,2-dihydropyridine-3-carboxamide], which IC50 is on record?
Answer: 25 to 50 µM

Question: For NC(=O)c1cc(-c2ccc(CC3(O)CCOCC3)cc2)c(C(F)(F)F)[nH]c1=O [Example 50, 5-(4-((4-hydroxytetrahydro-2H-pyran-4-yl)methyl)phenyl)-2-oxo-6-(trifluoromethyl)-1,2-dihydropyridine-3-carboxamide], which IC50 is on record?
Answer: 25 to 50 µM

Question: How did the IC50 turn out when NC(=O)c1cc(-c2ccc(CC3(F)CCOCC3)cc2)c(C(F)(F)F)[nH]c1=O [Example 51, 5-(4-((4-fluorotetrahydro-2H-pyran-4-yl)methyl)phenyl)-2-oxo-6-(trifluoromethyl)-1,2-dihydropyridine-3-carboxamide] was run?
Answer: 5 to 10 µM

Question: How did the IC50 turn out when NC(=O)c1cc(-c2ccc(OCc3cccc([N+](=O)[O-])c3)cc2)c(C(F)(F)F)[nH]c1=O [Example 54, 5-(4-((3-nitrobenzyl)oxy)phenyl)-2-oxo-6-(trifluoromethyl)-1,2-dihydropyridine-3-carboxamide] was run?
Answer: 10 to 25 µM

Question: CC(=O)N1CCC(COc2ccc(-c3cc(C(N)=O)c(=O)[nH]c3C(F)(F)F)cc2)CC1 [Example 55, 5-(4-((1-acetylpiperidin-4-yl)methoxy)phenyl)-2-oxo-6-(trifluoromethyl)-1,2-dihydropyridine-3-carboxamide] was tested. Which IC50 did it give?
Answer: 25 to 50 µM

Question: With NC(=O)c1cc(-c2ccc(OCC3CCOCC3)cc2)c(C(F)(F)F)[nH]c1=O [Example 56, 2-oxo-5-(4-((tetrahydro-2H-pyran-4-yl)methoxy)phenyl)-6-(trifluoromethyl)-1,2-dihydropyridine-3-carboxamide] as the compound, how does the IC50 read?
Answer: 25 to 50 µM

Question: For NC(=O)c1cc(-c2ccc(OCc3cccc(N)c3)cc2)c(C(F)(F)F)[nH]c1=O [Example 57, 5-(4-((3-aminobenzyl)oxy)phenyl)-2-oxo-6-(trifluoromethyl)-1,2-dihydropyridine-3-carboxamide], which IC50 is on record?
Answer: 5 to 10 µM

Question: For NC(=O)c1cc(-c2ccc(OCC3CCCCC3)cc2)c(C(F)(F)F)[nH]c1=O [Example 58, 5-(4-(cyclohexylmethoxy)phenyl)-2-oxo-6-(trifluoromethyl)-1,2-dihydropyridine-3-carboxamide], which IC50 is on record?
Answer: 5 to 10 µM

Question: How did the IC50 turn out when COc1ccc(COc2ccc(-c3cc(C(N)=O)c(=O)[nH]c3C(F)(F)F)cc2)cc1 [Example 59, 5-(4-((4-methoxybenzyl)oxy)phenyl)-2-oxo-6-(trifluoromethyl)-1,2-dihydropyridine-3-carboxamide] was run?
Answer: 5 to 10 µM

Question: How did the IC50 turn out when CN(C)C(=O)c1ccc(COc2ccc(-c3cc(C(N)=O)c(=O)[nH]c3C(F)(F)F)cc2)cc1 [Example 60, 5-(4-((4-(dimethylcarbamoyl)benzyl)oxy)phenyl)-2-oxo-6-(trifluoromethyl)-1,2-dihydropyridine-3-carboxamide] was run?
Answer: 25 to 50 µM
